According to ChEMBL document CHEMBL1134446, “Polyamine analogue antidiarrheals: a structure-activity study” (J Med Chem, 2001):

What was measured:
Canis familiaris [1] = assay: putrescine Distribution in kidney was determined after DESPM dosing of 8.0 mg/kg/day for 4.5 days in dog and sacrificed at 10 days PLD(cu dose-36 mg/kg); format: ADME, organism-based, Canis lupus familiaris; details: in vivo, 240 h
Canis familiaris [2] = assay: Spermidine Distribution in kidney was determined after DESPM dosing of 4 mg/kg/day for 13 days in dog(cu dose-52.4) and sacrificed at 10 days PLD(cu dose-52 mg/kg); format: ADME, organism-based, Canis lupus familiaris; details: in vivo, 240 h
Canis familiaris [3] = assay: putrescine Distribution in liver was determined after DESPM dosing of 6.0 mg/kg/day for 4.5 days in dog(cu dose-52.4) and sacrificed at 75 days PLD(cu dose-27 mg/kg); format: ADME, organism-based, Canis lupus familiaris; details: in vivo, 1800 h
Canis familiaris [4] = assay: Spermidine Distribution in kidney was determined after DESPM dosing of 6.0 mg/kg/day for 4.5 days in dog(cu dose-52.4) and sacrificed at 75 days PLD(cu dose-27 mg/kg); format: ADME, organism-based, Canis lupus familiaris; details: in vivo, 1800 h
Canis familiaris [5] = assay: putrescine Distribution in liver was determined after DESPM dosing of 8.0 mg/kg/day for 4.5 days in dog(cu dose-52.4) and sacrificed at 75 days PLD(cu dose-36 mg/kg); format: ADME, organism-based, Canis lupus familiaris; details: in vivo, 1800 h
Canis familiaris [6] = assay: MESPM/MEHSPH Distribution in kidney was determined after DESPM dosing of 6.0 mg/kg/day for 4.5 days in dog(cu dose-52.4) and sacrificed at 75 days PLD(cu dose-27 mg/kg); format: ADME, organism-based, Canis lupus familiaris; details: in vivo, 1800 h
Canis familiaris [7] = assay: Spermidine Distribution in kidney was determined after DESPM dosing of 8.0 mg/kg/day for 4.5 days in dog(cu dose-52.4) and sacrificed at 75 days PLD(cu dose-36 mg/kg); format: ADME, organism-based, Canis lupus familiaris; details: in vivo, 1800 h
Canis familiaris [8] = assay: MESPM/MEHSPH Distribution in liver was determined after DESPM dosing of 8.0 mg/kg/day for 4.5 days in dog(cu dose-52.4) and sacrificed at 10 days PLD(cu dose-36 mg/kg); format: ADME, organism-based, Canis lupus familiaris; details: in vivo, 240 h
Rattus norvegicus [9] = assay: Stool output of rat over the 6-h collection period when a dose of 9.4 mg/kg (23.3 administered; format: functional
Canis familiaris [10] = assay: Spermine Distribution in liver was determined after DESPM dosing of 4 mg/kg/day for 13 days in dog(cu dose-52.4) and sacrificed at 75 days PLD(cu dose-52 mg/kg); format: ADME, organism-based, Canis lupus familiaris; details: in vivo, 1800 h
Canis familiaris [11] = assay: Spermine Distribution in kidney was determined after DESPM dosing of 6.0 mg/kg/day for 4.5 days in dog(cu dose-52.4) and sacrificed at 75 days PLD(cu dose-27 mg/kg); format: ADME, organism-based, Canis lupus familiaris; details: in vivo, 1800 h
Canis familiaris [12] = assay: MESPM/MEHSPH Distribution in kidney was determined after DESPM dosing of 6.0 mg/kg/day for 4.5 days in dog(cu dose-52.4) and sacrificed at 10 days PLD(cu dose-27 mg/kg); format: ADME, organism-based, Canis lupus familiaris; details: in vivo, 240 h
Canis familiaris [13] = assay: putrescine Distribution in kidney was determined after DESPM dosing of 4.0 mg/kg/day for 13 days in dog and sacrificed at 10 days PLD(cu dose-52 mg/kg); format: ADME, organism-based, Canis lupus familiaris; details: in vivo, 240 h
Canis familiaris [14] = assay: Spermidine Distribution in liver was determined after DESPM dosing of 1.87 mg/kg/day for 28 days in dog(cu dose-52.4) and sacrificed at 10 days PLD(cu dose-52.4 mg/kg); format: ADME, organism-based, Canis lupus familiaris; details: in vivo, 240 h
Canis familiaris [15] = assay: putrescine Distribution in kidney was determined after DESPM dosing of 4.0 mg/kg/day for 13 days in dog and sacrificed at 75 days PLD(cu dose-52 mg/kg); format: ADME, organism-based, Canis lupus familiaris; details: in vivo, 1800 h
Rattus norvegicus [16] = assay: Percent reduction was determined by using the ratio of mean of treated animal to that of control animal at a dose of 94 mg/kg; format: functional
Canis familiaris [17] = assay: Spermine Distribution in liver was determined after DESPM dosing of 6.0 mg/kg/day for 4.5 days in dog(cu dose-52.4) and sacrificed at 10 days PLD(cu dose-27 mg/kg); format: ADME, organism-based, Canis lupus familiaris; details: in vivo, 240 h
Canis familiaris [18] = assay: putrescine Distribution in liver was determined after DESPM dosing of 8.0 mg/kg/day for 4.5 days in dog(cu dose-52.4) and sacrificed at 10 days PLD(cu dose-36 mg/kg); format: ADME, organism-based, Canis lupus familiaris; details: in vivo, 240 h
Canis familiaris [19] = assay: MESPM/MEHSPH Distribution in liver was determined after DESPM dosing of 1.87 mg/kg/day for 28 days in dog(cu dose-52.4) and sacrificed at 10 days PLD(cu dose-52.4 mg/kg); format: ADME, organism-based, Canis lupus familiaris; details: in vivo, 240 h
Canis familiaris [20] = assay: Spermine Distribution in liver was determined after DESPM dosing of 8.0 mg/kg/day for 4.5 days in dog(cu dose-52.4) and sacrificed at 10 days PLD(cu dose-36 mg/kg); format: ADME, organism-based, Canis lupus familiaris; details: in vivo, 240 h
Canis familiaris [21] = assay: putrescine Distribution in kidney was determined after DESPM dosing of 1.87 mg/kg/day for 28 days in dog and sacrificed at 10 days PLD(cu dose-52.4 mg/kg); format: ADME, organism-based, Canis lupus familiaris; details: in vivo, 240 h
Canis familiaris [22] = assay: MESPM/MEHSPH Distribution in kidney was determined after DESPM dosing of 8.0 mg/kg/day for 4.5 days in dog(cu dose-52.4) and sacrificed at 75 days PLD(cu dose-36 mg/kg); format: ADME, organism-based, Canis lupus familiaris; details: in vivo, 1800 h
Canis familiaris [23] = assay: MESPM/MEHSPH Distribution in kidney was determined after DESPM dosing of 8.0 mg/kg/day for 4.5 days in dog(cu dose-52.4) and sacrificed at 10 days PLD(cu dose-36 mg/kg); format: ADME, organism-based, Canis lupus familiaris; details: in vivo, 240 h
Canis familiaris [24] = assay: Distribution in liver was determined after DESPM dosing of 1.87 mg/kg/day for 28 days in dog(cu dose-52.4) and sacrificed at 10 days PLD(cu dose-52.4 mg/kg); format: ADME, organism-based, Canis lupus familiaris; details: in vivo, 240 h
Canis familiaris [25] = assay: Distribution in kidney was determined after DESPM dosing of 6.0 mg/kg/day for 4.5 days in dog(cu dose-52.4) and sacrificed at 10 days PLD(cu dose-27 mg/kg); format: ADME, organism-based, Canis lupus familiaris; details: in vivo, 240 h
Canis familiaris [26] = assay: Spermine Distribution in liver was determined after DEHSPM dosing of 2.0 mg/kg/day for 29 days in dog(cu dose-52.4) and sacrificed at 10 days PLD(cu dose-58 mg/kg); format: ADME, organism-based, Canis lupus familiaris; details: in vivo, 240 h
Canis familiaris [27] = assay: Distribution in liver was determined after DESPM dosing of 6.0 mg/kg/day for 4.5 days in dog(cu dose-52.4) and sacrificed at 75 days PLD(cu dose-27 mg/kg); format: ADME, organism-based, Canis lupus familiaris; details: in vivo, 1800 h
Canis familiaris [28] = assay: putrescine Distribution in kidney was determined after DEHSPM dosing of 2.0 mg/kg/day for 29 days in dog(cu dose-52.4) and sacrificed at 10 days PLD(cu dose-22 mg/kg); format: ADME, organism-based, Canis lupus familiaris; details: in vivo, 240 h
Canis familiaris [29] = assay: Distribution in liver was determined after DESPM dosing of 8.0 mg/kg/day for 4.5 days in dog(cu dose-52.4) and sacrificed at 10 days PLD(cu dose-36 mg/kg); format: ADME, organism-based, Canis lupus familiaris; details: in vivo, 240 h
Canis familiaris [30] = assay: Distribution in kidney was determined after DEHSPM dosing of 2.0 mg/kg/day for 29 days in dog(cu dose-52.4) and sacrificed at 10 days PLD(cu dose-22 mg/kg); format: ADME, organism-based, Canis lupus familiaris; details: in vivo, 240 h
Canis familiaris [31] = assay: MESPM/MEHSPH Distribution in liver was determined after DEHSPM dosing of 2.0 mg/kg/day for 29 days in dog(cu dose-52.4) and sacrificed at 10 days PLD(cu dose-22 mg/kg); format: ADME, organism-based, Canis lupus familiaris; details: in vivo, 240 h
Canis familiaris [32] = assay: Distribution in liver was determined after DESPM dosing of 4 mg/kg/day for 13 days in dog(cu dose-52.4) and sacrificed at 75 days PLD(cu dose-52 mg/kg); format: ADME, organism-based, Canis lupus familiaris; details: in vivo, 1800 h

## CCNCCCNCCCCNCCCNCC [BIS(ETHYL)SPERMINE]
Canis familiaris [1]
  Wet weight of tissue: 20 nM/g
Canis familiaris [2]
  Wet weight of tissue: 82 nM/g
Canis familiaris [3]
  Wet weight of tissue: 101 nM/g
Canis familiaris [4]
  Wet weight of tissue: 90 nM/g
Canis familiaris [5]
  Wet weight of tissue: 56 nM/g
Canis familiaris [6]
  Wet weight of tissue: 0 nM/g
Canis familiaris [7]
  Wet weight of tissue: 80 nM/g
Canis familiaris [8]
  Wet weight of tissue: 21 nM/g
Rattus norvegicus [9]
  Stool output: <0.6 g (350g of rat weight)-1
Canis familiaris [10]
  Wet weight of tissue: 886 nM/g
Canis familiaris [11]
  Wet weight of tissue: 584 nM/g
Canis familiaris [12]
  Wet weight of tissue: 10 nM/g
Canis familiaris [13]
  Wet weight of tissue: 12 nM/g
Canis familiaris [14]
  Wet weight of tissue: 179 nM/g
Canis familiaris [15]
  Wet weight of tissue: 7 nM/g
Rattus norvegicus [16]
  Reduction: 100%
Canis familiaris [17]
  Wet weight of tissue: 848 nM/g
Canis familiaris [18]
  Wet weight of tissue: 109 nM/g
Canis familiaris [19]
  Wet weight of tissue: 7 nM/g
Canis familiaris [20]
  Wet weight of tissue: 937 nM/g
Canis familiaris [21]
  Wet weight of tissue: 0 nM/g
Canis familiaris [22]
  Wet weight of tissue: 0 nM/g
Canis familiaris [23]
  Wet weight of tissue: 12 nM/g

## CCNCCCCNCCCCNCCCCNCC [DIETHYLHOMOSPERMINE]
Canis familiaris [24]
  Wet weight of tissue: 18 nM/g
Canis familiaris [25]
  Wet weight of tissue: 44 nM/g
Canis familiaris [26]
  Wet weight of tissue: 108 nM/g
Canis familiaris [27]
  Wet weight of tissue: 0 nM/g
Canis familiaris [28]
  Wet weight of tissue: 0 nM/g
Canis familiaris [29]
  Wet weight of tissue: 29 nM/g
Canis familiaris [30]
  Wet weight of tissue: 0 nM/g
Canis familiaris [31]
  Wet weight of tissue: 13 nM/g
Canis familiaris [32]
  Wet weight of tissue: 0 nM/g
